According to ChEMBL document CHEMBL1134442, “Novel selective PDE4 inhibitors. 2. Synthesis and structure-activity relationships of 4-aryl-substituted cis-tetra- and cis-hexahydrophthalazinones” (J Med Chem, 2001):

What was measured:
Phosphodiesterase 3 = Phosphodiesterase 3 (Homo sapiens, UniProt Q14432+Q13370); assay: Inhibitory activity of the against phosphodiesterase 3 (PDE3); No significant inhibitory activity at pIC50; type: protein assay
Phosphodiesterase 4 = Phosphodiesterase 4 (Homo sapiens, UniProt P27815+Q08499+Q07343+Q08493); assay: Inhibition of phosphodiesterase 4 (PDE4) in human neutrophils; type: protein assay

Row | pIC50 (Phosphodiesterase 3) | pIC50 (Phosphodiesterase 4) | SMILES
1 | < 5.5 | 8 | COc1ccc(C2=NN(Cc3ccccc3)C(=O)C3CCCCC23)cc1OC1CCCC1 (stereo not given)
2 | < 5.5 | 8.3 | COc1ccc(C2=NN(C3CCCCCC3)C(=O)C3CC=CCC23)cc1OCCCCCc1ccccc1 (stereo not given)
3 | < 5.5 | 7.2 | COc1ccc(C2=NN(C3CCCCCC3)C(=O)C3CC=CCC23)cc1OCCN(C)C (stereo not given)
4 | < 5.5 | 9.1 | COc1ccc(C2=NN(C3CCCCCC3)C(=O)C3CC=CCC23)cc1OC (stereo not given)
5 | < 5.5 | 9.5 | COc1ccc(C2=NN(C3CCCCCC3)C(=O)C3CC=CCC23)cc1OCCCCCCOc1ccc(C(N)=O)cc1 (stereo not given)
6 | < 5.5 | 8.6 | COc1ccc(C2=NN(Cc3ccccc3)C(=O)C3CCCCC23)c2c1OC1(CCCC1)C2 (stereo not given)
7 | < 5.5 | 8.9 | COc1ccc(C2=NN(C3CCCCCC3)C(=O)C3CC=CCC23)cc1OC1CCCC1 (stereo not given)
8 | < 5.5 | 8.1 | COc1ccc(C2=NN(Cc3ccccc3)C(=O)C3CCCCC23)cc1OC (stereo not given)
9 | < 5.5 | 8 | COc1ccc(C2=NN(C3CCCCCC3)C(=O)C3CC=CCC23)cc1Cl (stereo not given)
10 | < 5.5 | 8.1 | COc1ccc(C2=NN(C3CCCCCC3)C(=O)C3CC=CCC23)cc1OCCCCn1ccnc1 (stereo not given)
11 | < 5.5 | 7.2 | COc1ccc(C2=NN(C3CCCCCC3)C(=O)C3CC=CCC23)cc1OCCCC(=O)O (stereo not given)
12 | < 5.5 | 5.6 | COc1ccc(C2=NN(C3CCCCCC3)C(=O)C3CC=CCC23)cc1OCC(=O)O (stereo not given)
13 | < 5.5 | 8.7 | COc1ccc(C2=NN(C3CCCCCC3)C(=O)C3CC=CCC23)cc1OCCCCCCOc1ccc(C(=O)O)cc1 (stereo not given)
14 | < 5.5 | < 5 | O=C1C2CCCCC2C(c2cccc(Cl)c2)=NN1Cc1ccccc1 (stereo not given)
15 | < 5.5 | 9.2 | COc1ccc(C2=NN(C3CCCCCC3)C(=O)C3CC=CCC23)cc1OCCCCOc1ccc(-c2nn[nH]n2)cc1 (stereo not given)
16 | < 5.5 | 5.6 | COc1cccc(C2=NN(Cc3ccccc3)C(=O)C3CCCCC23)c1 (stereo not given)
17 | < 5.5 | 7.4 | COc1ccc(C2=NN(C3CCCCCC3)C(=O)C3CC=CCC23)cc1OCCCCN(C)C (stereo not given)
18 | < 5.5 | 5.9 | COc1ccc(C2=NN(Cc3ccccc3)C(=O)C3CCCCC23)cc1 (stereo not given)

Row | pIC50 (Phosphodiesterase 3) | pIC50 (Phosphodiesterase 4) | SMILES
19 | < 5.5 | 7.6 | COc1ccc(C2=NN(C3CCCCCC3)C(=O)C3CC=CCC23)cc1OCCCCn1cnc2ncncc21 (stereo not given)
20 | < 5.5 | 5.8 | O=C1C2CCCCC2C(c2ccc3c(c2)OCO3)=NN1Cc1ccccc1 (stereo not given)
21 | < 5.5 | < 5 | O=C1C2CCCCC2C(c2ccccc2)=NN1Cc1ccccc1 (stereo not given)
22 | < 5.5 | – | COc1ccc([C@@H]2CNC(=O)C2)cc1OC1CCCC1 [(-)-ROLIPRAM]
23 | < 5.5 | 9.5 | COc1ccc(C2=NN(C3CCCCCC3)C(=O)C3CC=CCC23)cc1OCCCCOc1ccc(C(=O)O)cc1 (stereo not given)
24 | < 5.5 | 9 | COc1ccc(C2=NN(C3CCCCCC3)C(=O)C3CC=CCC23)c2c1OC(C)(C)C2 (stereo not given)
25 | < 5.5 | < 5 | COc1cc(C2=NN(Cc3ccccc3)C(=O)C3CCCCC23)ccc1OC1CCCC1 (stereo not given)
26 | < 5.5 | 8.6 | COc1ccc(C2=NN(C3CCCCCC3)C(=O)C3CC=CCC23)cc1OCCCCOc1ccc(C#N)cc1 (stereo not given)
27 | < 5.5 | 7.8 | COc1ccc(C2=NN(C3CCCCCC3)C(=O)C3CC=CCC23)cc1OCCCCC(=O)O (stereo not given)
28 | < 5.5 | 9.7 | COc1ccc(C2=NN(C3CCCCCC3)C(=O)C3CC=CCC23)cc1OCCCCOc1ccc(-n2ccnc2)cc1 (stereo not given)
29 | < 5.5 | 9 | COc1ccc(C2=NN(C3CCCCCC3)C(=O)C3CC=CCC23)cc1OCC1CC1 (stereo not given)
30 | < 5.5 | 8 | COc1ccc(C2=NN(C3CCCCCC3)C(=O)C3CC=CCC23)cc1OCCCCCCOc1ccccc1 (stereo not given)
31 | < 5.5 | – | COc1ccc([C@]2(C#N)CC[C@@H](C(=O)O)CC2)cc1OC1CCCC1 [CILOMILAST]
32 | < 5.5 | 8.8 | COc1ccc(C2=NN(C3CCCCCC3)C(=O)C3CC=CCC23)cc1OC(F)F (stereo not given)
33 | < 5.5 | 8.4 | COc1ccc(C2=NN(C3CCCCCC3)C(=O)C3CC=CCC23)cc1OCCO (stereo not given)
34 | < 5.5 | 7.8 | CCOc1ccc(C2=NN(Cc3ccccc3)C(=O)C3CCCCC23)cc1OCC (stereo not given)
35 | < 5.5 | 9.2 | COc1ccc(C2=NN(C3CCCCCC3)C(=O)C3CC=CCC23)c2c1OC1(CCCC1)C2 (stereo not given)
36 | < 5.5 | 7.4 | COc1ccc(C2=NN(C3CCCCCC3)C(=O)C3CC=CCC23)cc1O (stereo not given)
